This note sets out measurements from patent US6461856B2 (priority 1999, dated 2002).

The experiment relates to F420-dependent dehydrogenase (ORF 9). Format: biochemical, Rhodococcus erythropolis HL PM-1.

In the case of `O=[N+]([O-])c1ccc(O)c([N+](=O)[O-])c1` [DNP, 2,4-dinitrophenol], the “reduction of the substrate to its Meisenheimer complex upon addition of ORF 9 extract” value is recorded as “reduces”.
